From ChEMBL document CHEMBL2321780, “Fluorinated quinazolinones as potential radiotracers for imaging kinesin spindle protein expression” (2013)

Assays:
[1] = molecular target: Centromere-associated protein E (Homo sapiens) (UniProt Q02224); assay: Inhibition of CENP-E (unknown origin)-mediated ATP hydrolysis assessed as residual activity at 1 uM after 10 to 20 mins by spectrophotometric analysis
[2] = molecular target: T1, Kinesin-like protein KIFC3 (Homo sapiens) (UniProt Q9BVG8); assay: Inhibition of KIFC3 (unknown origin)-mediated ATP hydrolysis assessed as residual activity at 1 uM after 10 to 20 mins by spectrophotometric analysis
T1 sequence (whole entry): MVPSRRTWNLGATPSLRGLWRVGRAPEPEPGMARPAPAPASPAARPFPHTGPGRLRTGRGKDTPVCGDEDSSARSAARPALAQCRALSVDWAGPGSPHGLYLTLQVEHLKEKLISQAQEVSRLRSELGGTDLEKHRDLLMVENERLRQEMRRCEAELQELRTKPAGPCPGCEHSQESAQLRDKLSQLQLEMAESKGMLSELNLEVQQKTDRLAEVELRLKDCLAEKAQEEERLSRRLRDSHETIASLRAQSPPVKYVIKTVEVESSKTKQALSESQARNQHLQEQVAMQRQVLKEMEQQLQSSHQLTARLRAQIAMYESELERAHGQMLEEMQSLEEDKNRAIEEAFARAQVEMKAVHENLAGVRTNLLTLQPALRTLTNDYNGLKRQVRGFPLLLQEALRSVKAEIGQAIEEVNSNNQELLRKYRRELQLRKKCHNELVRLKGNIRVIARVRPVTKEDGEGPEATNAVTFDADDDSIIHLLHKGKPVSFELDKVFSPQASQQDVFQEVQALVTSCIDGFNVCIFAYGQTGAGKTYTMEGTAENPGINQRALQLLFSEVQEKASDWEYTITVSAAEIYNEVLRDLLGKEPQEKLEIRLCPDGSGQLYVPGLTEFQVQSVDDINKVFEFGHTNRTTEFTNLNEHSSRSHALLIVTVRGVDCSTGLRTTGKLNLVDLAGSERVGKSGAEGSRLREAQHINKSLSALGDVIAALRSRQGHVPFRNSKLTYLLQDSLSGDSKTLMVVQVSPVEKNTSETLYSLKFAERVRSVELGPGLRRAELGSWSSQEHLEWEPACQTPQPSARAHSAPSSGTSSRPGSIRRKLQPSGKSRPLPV

[3] = molecular target: T2, Kinesin-1 heavy chain (Homo sapiens) (UniProt P33176); assay: Inhibition of KNH (unknown origin)-mediated ATP hydrolysis assessed as residual activity at 1 uM after 10 to 20 mins by spectrophotometric analysis
T2 sequence (whole entry): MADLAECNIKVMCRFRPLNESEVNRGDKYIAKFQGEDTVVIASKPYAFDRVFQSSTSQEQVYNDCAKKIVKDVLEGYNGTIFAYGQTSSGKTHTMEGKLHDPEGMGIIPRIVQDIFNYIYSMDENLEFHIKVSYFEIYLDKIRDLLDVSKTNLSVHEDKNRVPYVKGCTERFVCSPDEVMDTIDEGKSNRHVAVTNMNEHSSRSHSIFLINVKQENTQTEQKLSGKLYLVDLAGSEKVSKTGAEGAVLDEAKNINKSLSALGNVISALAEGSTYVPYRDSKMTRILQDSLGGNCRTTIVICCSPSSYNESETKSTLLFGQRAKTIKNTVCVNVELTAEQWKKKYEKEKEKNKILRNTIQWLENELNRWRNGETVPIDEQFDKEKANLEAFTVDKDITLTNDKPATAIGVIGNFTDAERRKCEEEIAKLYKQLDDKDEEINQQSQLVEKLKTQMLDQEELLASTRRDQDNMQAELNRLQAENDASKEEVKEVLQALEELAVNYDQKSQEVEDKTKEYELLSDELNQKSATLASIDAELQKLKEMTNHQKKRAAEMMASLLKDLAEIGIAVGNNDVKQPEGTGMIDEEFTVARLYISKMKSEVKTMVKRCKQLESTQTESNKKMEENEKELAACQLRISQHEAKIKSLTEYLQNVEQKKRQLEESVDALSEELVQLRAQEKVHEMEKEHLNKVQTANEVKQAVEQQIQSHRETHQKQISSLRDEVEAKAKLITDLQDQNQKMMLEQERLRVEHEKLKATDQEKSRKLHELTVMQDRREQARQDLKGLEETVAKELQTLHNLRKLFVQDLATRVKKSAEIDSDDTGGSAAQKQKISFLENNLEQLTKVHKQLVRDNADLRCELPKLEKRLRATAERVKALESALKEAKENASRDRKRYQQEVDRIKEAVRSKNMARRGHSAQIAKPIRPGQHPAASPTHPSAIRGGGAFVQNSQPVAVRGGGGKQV

[4] = molecular target: T3, Kinesin-like protein KIF2C (Homo sapiens) (UniProt Q99661); assay: Inhibition of MCAK (unknown origin)-mediated ATP hydrolysis assessed as residual activity at 1 uM after 10 to 20 mins by spectrophotometric analysis
T3 sequence (whole entry): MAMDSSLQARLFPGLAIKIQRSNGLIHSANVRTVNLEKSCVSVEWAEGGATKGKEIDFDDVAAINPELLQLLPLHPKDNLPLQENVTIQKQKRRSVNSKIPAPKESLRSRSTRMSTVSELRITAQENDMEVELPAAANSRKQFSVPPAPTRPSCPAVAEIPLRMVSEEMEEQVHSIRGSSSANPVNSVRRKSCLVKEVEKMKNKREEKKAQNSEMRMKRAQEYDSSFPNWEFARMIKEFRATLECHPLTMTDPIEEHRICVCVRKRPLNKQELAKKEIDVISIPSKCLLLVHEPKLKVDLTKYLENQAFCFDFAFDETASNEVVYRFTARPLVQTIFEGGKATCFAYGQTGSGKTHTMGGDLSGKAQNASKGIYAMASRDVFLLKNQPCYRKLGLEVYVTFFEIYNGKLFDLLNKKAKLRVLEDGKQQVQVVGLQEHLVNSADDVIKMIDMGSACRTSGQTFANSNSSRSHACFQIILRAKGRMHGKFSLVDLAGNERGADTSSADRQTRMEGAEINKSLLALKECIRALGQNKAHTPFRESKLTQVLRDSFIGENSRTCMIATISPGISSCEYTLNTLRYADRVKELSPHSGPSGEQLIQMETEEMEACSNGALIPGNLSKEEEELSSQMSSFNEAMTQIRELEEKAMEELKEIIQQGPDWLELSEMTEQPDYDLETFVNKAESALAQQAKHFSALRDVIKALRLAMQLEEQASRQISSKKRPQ

MCF7 = assay: Nonspecific cytotoxicity against human MCF7 cells after 44 hrs by MTT assay; type: functional; details: MCF7, 44 h
SK-OV-3 = assay: Nonspecific cytotoxicity against human SKOV3 cells after 44 hrs by MTT assay; type: functional; details: SK-OV-3, 44 h
DU-145 = assay: Nonspecific cytotoxicity against human DU145 cells after 44 hrs by MTT assay; type: functional; details: DU-145, 44 h
PC-3 = assay: Nonspecific cytotoxicity against human PC3 cells after 44 hrs by MTT assay; type: functional; details: PC-3, 44 h

Chain of Centromere-associated protein E (Homo sapiens) (Q02224 whole entry): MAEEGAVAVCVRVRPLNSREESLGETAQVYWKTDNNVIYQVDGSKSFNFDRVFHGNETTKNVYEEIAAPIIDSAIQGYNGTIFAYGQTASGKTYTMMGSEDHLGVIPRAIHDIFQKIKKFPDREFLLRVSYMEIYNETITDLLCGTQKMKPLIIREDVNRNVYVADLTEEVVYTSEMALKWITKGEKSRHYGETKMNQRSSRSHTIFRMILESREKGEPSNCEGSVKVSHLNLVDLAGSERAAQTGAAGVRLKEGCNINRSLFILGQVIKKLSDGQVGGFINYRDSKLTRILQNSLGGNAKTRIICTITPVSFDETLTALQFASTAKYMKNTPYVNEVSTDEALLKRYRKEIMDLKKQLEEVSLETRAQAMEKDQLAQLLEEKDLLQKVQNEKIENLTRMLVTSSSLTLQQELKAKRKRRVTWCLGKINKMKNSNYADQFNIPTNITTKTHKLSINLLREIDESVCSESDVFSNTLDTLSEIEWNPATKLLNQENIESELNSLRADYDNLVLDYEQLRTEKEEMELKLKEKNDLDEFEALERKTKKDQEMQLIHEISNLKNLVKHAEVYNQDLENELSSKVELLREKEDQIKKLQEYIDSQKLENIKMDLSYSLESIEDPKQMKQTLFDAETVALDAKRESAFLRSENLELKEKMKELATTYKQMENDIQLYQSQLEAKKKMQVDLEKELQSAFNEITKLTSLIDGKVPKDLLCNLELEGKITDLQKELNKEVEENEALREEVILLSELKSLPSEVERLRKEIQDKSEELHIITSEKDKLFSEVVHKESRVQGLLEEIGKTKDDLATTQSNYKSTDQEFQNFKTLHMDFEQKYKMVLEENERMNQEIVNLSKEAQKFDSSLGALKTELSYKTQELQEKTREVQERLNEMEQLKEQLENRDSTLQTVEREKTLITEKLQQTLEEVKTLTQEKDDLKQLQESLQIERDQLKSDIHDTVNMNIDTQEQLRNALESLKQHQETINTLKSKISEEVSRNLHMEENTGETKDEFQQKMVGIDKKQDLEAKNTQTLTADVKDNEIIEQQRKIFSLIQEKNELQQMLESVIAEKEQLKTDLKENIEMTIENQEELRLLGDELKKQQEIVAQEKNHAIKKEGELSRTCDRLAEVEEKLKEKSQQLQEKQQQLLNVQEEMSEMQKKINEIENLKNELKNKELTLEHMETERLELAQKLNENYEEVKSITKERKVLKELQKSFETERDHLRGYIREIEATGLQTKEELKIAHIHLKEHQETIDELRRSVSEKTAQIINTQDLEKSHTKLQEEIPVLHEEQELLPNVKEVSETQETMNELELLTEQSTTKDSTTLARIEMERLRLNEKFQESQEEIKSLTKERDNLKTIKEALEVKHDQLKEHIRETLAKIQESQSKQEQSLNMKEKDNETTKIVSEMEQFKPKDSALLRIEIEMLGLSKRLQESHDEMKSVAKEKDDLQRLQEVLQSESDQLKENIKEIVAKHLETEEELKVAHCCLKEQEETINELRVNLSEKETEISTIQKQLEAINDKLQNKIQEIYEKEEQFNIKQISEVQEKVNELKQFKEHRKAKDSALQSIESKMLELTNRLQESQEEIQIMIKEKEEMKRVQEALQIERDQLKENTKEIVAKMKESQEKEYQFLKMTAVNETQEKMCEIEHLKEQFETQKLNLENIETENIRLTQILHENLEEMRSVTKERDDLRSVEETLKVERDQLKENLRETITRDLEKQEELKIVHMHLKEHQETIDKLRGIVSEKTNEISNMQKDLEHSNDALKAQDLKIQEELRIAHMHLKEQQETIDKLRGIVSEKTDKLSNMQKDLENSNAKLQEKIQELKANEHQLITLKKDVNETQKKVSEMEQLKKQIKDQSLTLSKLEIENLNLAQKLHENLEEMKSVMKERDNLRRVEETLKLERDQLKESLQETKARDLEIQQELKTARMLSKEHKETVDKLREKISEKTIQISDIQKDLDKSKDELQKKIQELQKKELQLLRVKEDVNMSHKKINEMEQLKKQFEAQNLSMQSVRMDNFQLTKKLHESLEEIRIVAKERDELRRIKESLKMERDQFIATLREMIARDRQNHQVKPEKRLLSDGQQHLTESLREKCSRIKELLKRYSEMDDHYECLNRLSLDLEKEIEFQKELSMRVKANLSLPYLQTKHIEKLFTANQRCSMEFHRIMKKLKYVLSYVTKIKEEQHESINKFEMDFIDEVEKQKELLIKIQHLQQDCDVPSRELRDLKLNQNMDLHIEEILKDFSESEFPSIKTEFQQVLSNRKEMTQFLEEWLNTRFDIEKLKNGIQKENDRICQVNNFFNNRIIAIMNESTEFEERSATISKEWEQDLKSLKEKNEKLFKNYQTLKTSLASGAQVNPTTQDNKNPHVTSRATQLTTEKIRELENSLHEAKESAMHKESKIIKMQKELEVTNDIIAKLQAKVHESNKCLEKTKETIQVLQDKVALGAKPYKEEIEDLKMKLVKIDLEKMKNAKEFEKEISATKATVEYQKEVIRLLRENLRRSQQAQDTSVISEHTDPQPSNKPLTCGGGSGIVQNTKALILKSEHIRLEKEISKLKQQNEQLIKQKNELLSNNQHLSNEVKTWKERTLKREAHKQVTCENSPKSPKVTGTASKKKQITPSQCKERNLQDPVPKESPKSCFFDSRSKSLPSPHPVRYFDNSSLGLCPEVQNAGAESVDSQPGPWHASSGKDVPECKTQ

Row | SMILES | Activity [1] [%] | Activity [2] [%] | Activity [3] [%] | Activity [4] [%] | GI50 (MCF7) [nM] | GI50 (SK-OV-3) [nM] | GI50 (DU-145) [nM] | GI50 (PC-3) [nM]
1 | CC(C)[C@H](c1nc2cc(Cl)ccc2c(=O)n1Cc1ccccc1)N(CCCN)C(=O)c1ccccc1F | 99.1 | 99.4 | 97.2 | 98.7 | 3000 | 5350 | 5600 | 4600
2 | CC(C)C(c1nc2cc(Cl)ccc2c(=O)n1Cc1ccccc1)N(CCCN)C(=O)c1cccc(F)c1 (racemic) | 97.4 | 99.4 | 99.1 | 96.4 | 2900 | 5700 | 3300 | 7600
3 | CC(C)[C@H](c1nc2cc(Cl)ccc2c(=O)n1Cc1ccccc1)N(CCCN)C(=O)c1ccc(F)cc1 | 99.8 | 101 | 97.1 | 99.2 | 2500 | 15400 | 2200 | 5100
4 | CC(C)[C@@H](c1nc2cc(Cl)ccc2c(=O)n1Cc1ccccc1)N(CCCN)C(=O)c1cccc(F)c1 | 100 | 98.9 | 98.9 | 98.6 | 630 | 1100 | 520 | 1800

Continued, in another order:

Row | Activity [1] [%] | Activity [2] [%] | Activity [3] [%] | Activity [4] [%] | SMILES | GI50 (MCF7) [nM] | GI50 (SK-OV-3) [nM] | GI50 (DU-145) [nM] | GI50 (PC-3) [nM]
5 | 98 | 97.3 | 102 | 96.7 | Cc1ccc(C(=O)N(CCCN)[C@@H](c2nc3cc(Cl)ccc3c(=O)n2Cc2ccccc2)C(C)C)cc1 [ISPINESIB] | – | – | – | –
6 | 97.4 | 98.7 | 99.2 | 98.9 | CC(C)[C@@H](c1nc2cc(Cl)ccc2c(=O)n1Cc1ccccc1)N(CCCN)C(=O)c1ccc(F)cc1 | 1100 | 500 | 350 | 1300
7 | 97.9 | 98.8 | 97.9 | 98.2 | CC(C)[C@@H](c1nc2cc(Cl)ccc2c(=O)n1Cc1ccccc1)N(CCCN)C(=O)c1ccccc1F | 2000 | 850 | 720 | 160
8 | 99.1 | 97.9 | 96.8 | 99.2 | Cc1ccc(C(=O)N(CCCN)[C@H](c2nc3cc(Cl)ccc3c(=O)n2Cc2ccccc2)C(C)C)cc1 | – | – | – | –
